ChEMBL document CHEMBL2311300, “Fragment-based design, synthesis, and biological evaluation of N-substituted-5-(4-isopropylthiophenol)-2-hydroxynicotinamide derivatives as novel Mcl-1 inhibitors” (Eur J Med Chem, 2013)

How the values were obtained:
[1] = target: T1, Induced myeloid leukemia cell differentiation protein Mcl-1 (Homo sapiens, UniProt Q07820); experiment: Binding affinity to Mcl1 (unknown origin) expressed in Escherichia coli BL21 by ITC assay
[2] = target: T1, Induced myeloid leukemia cell differentiation protein Mcl-1; experiment: Inhibition of biotin-Bim peptide binding to Mcl1 (unknown origin) expressed in Escherichia coli BL21 by ELISA
[3] = test system: K562; experiment: Induction of apoptosis in Mcl1 dependent human K562 cells after 48 hrs by Annexin V staining based flow cytometry; format: functional, cell-based; details: K562, 48 h
[4] = target: T1, Induced myeloid leukemia cell differentiation protein Mcl-1; experiment: Inhibition of FAM-Bid peptide binding to Mcl1 (unknown origin) expressed in Escherichia coli BL21 by fluorescence polarization-based binding assay
[5] = test system: RS4-11; experiment: Induction of apoptosis in Bcl2 dependent human RS4:11 cells after 48 hrs by Annexin V staining based flow cytometry; format: functional, cell-based; details: RS4-11, 48 h

T1 sequence (Q07820 whole entry): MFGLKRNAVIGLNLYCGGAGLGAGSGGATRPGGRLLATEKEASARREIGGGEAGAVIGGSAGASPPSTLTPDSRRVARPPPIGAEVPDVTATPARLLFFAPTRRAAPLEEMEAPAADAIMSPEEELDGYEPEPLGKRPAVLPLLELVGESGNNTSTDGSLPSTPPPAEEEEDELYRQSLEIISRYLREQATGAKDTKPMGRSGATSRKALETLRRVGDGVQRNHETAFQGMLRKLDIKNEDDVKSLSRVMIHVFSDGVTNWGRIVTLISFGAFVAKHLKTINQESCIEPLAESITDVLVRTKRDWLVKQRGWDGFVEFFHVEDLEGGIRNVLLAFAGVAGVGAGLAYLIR

Row | Structure (SMILES) | IC50 [2] [nM] | Ki [2] [nM] | IC50 ([4]; read-out: IC50) [µM] | Ki ([4]; read-out: Ki) [µM] | other results
1 | CC(C)c1ccc(Sc2cnc(O)c(C(=O)NCc3ccccc3)c2)cc1 | 54 | 53.7 | – | – | Kd [1]: 980 nM; IC50 [3]: 0.84 µM
2 | N#Cc1cc(-c2cccc3ccccc23)cnc1O | – | – | 158 | 6.32 | –
3 | O=C1C(=O)c2cccc3cccc1c23 [ACENAPHTHOQUINONE] | – | – | 1420 | 57 | –
4 | CC(C)c1ccc(Sc2cnc(O)c(C(=O)NCCCc3ccccc3)c2)cc1 | 192 | 191 | – | – | –
5 | CCC(C)(C)c1ccc(Sc2cnc(O)c(C#N)c2)cc1 | – | – | 178 | 7.09 | –
6 | CC(C)c1ccc(Sc2c[nH]c(=O)c(C#N)c2)cc1 | 890 | 891 | 21.5 | 0.86 | –
7 | N#Cc1cc(Sc2ccc(Br)cc2)c[nH]c1=O | – | – | 121 | 4.83 | –
8 | N#Cc1cc(-c2ccc(Cl)cc2)c[nH]c1=O | – | – | 205 | 8.19 | –
9 | N#Cc1cc(-c2ccc(-c3ccccc3)cc2)cnc1O | – | – | 316 | 12.6 | –
10 | Cc1cc2c(C(C)C)c(O)c(O)c(C=O)c2c(O)c1-c1c(C)cc2c(C(C)C)c(O)c(O)c(C=O)c2c1O [GOSSYPOL] | 170 | 214 | 4.8 | 0.19 | –
11 | CN(C)CC[C@H](CSc1ccccc1)Nc1ccc(S(=O)(=O)NC(=O)c2ccc(N3CCN(Cc4ccccc4-c4ccc(Cl)cc4)CC3)cc2)cc1[N+](=O)[O-] [ABT 737] | – | – | – | – | IC50 [5]: 270 nM; IC50 [3]: 16.4 µM
12 | COc1ccnc(O)c1C#N | – | – | – | – | IC50 [4]: Not Active; Ki [4]: Not Active
13 | CC(C)NC(=O)c1cc(Sc2ccc(C(C)C)cc2)c[nH]c1=O | 501 | 468 | – | – | –
14 | Cc1ccc(Sc2cnc(O)c(C#N)c2)cc1 | – | – | 63.1 | 2.52 | –
15 | CC(C)c1ccc(Sc2cc(C#N)c(=O)n(Cc3ccccc3)c2)cc1 | – | – | 383 | 15.3 | –
16 | N#Cc1cc(Sc2ccccc2)c[nH]c1=O | – | – | 82.2 | 3.29 | –
17 | N#Cc1cc(Sc2ccc(N)cc2)c[nH]c1=O | – | – | 133 | 5.31 | –
18 | N#Cc1ccc[nH]c1=O | – | – | 2730 | 109 | –
19 | N#CC1=C2C(=NC1=O)c1cccc3c(N4CCSCC4)ccc2c13 | 46 | 45.7 | – | – | –
20 | N#Cc1cc(-c2ccccc2)c[nH]c1=O | – | – | 261 | 10.4 | –
21 | N#CC(C#N)=c1c(=O)c2cccc3cccc1c32 | – | – | 71.5 | 2.85 | –
22 | CCCCNC(=O)c1cc(Sc2ccc(C(C)C)cc2)c[nH]c1=O | 241 | 224 | – | – | –
